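Results reflect a 48-hour exposure of cells in 96-well plates to compound at five concentrations. At the GI50, growth is halved.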 Activity calls are given as the source filed them. Rule as the data show it: active = GI50 up to about 1.1 µM and inactive = higher.
Columns and labels:
Assay in all cases: inhibition of tumour cell growth, NCI panel, 48 h
TK-10 = system: TK-10
SK-MEL-5 = system: SK-MEL-5
SR = system: SR
SN12C = system: SN12C
HOP-92 = system: HOP-92
SK-OV-3 = system: SK-OV-3
RPMI-8226 = system: RPMI-8226
Malme-3M = system: Malme-3M
IGROV-1 = system: IGROV-1
SNB-75 = system: SNB-75
UO-31 = system: UO-31
SNB-19 = system: SNB-19
HCT-15 = system: HCT-15
MCF7 = system: MCF7
T47D = system: T47D
KM12 = system: KM12
HT-29 = system: HT-29
CCRF-CEM = system: CCRF-CEM
EKVX = system: EKVX
M14 = system: M14
786-0 = system: 786-0
SK-MEL-28 = system: SK-MEL-28
OVCAR-3 = system: OVCAR-3
NCI-H522 = system: NCI-H522
MDA-N = system: MDA-N
UACC-62 = system: UACC-62
PC-3 = system: PC-3
MDA-MB-435 = system: MDA-MB-435
A549 = system: A549
SF-268 = system: SF-268
MOLT-4 = system: MOLT-4
HCT-116 = system: HCT-116
HL-60 = system: HL-60
SW-620 = system: SW-620
BT-549 = system: BT-549
NCI-H226 = system: NCI-H226
OVCAR-4 = system: OVCAR-4
A498 = system: A498
HOP-62 = system: HOP-62
SK-MEL-2 = system: SK-MEL-2
LOX IMVI = system: LOX IMVI
OVCAR-5 = system: OVCAR-5
CAKI-1 = system: CAKI-1
Hs-578T = system: Hs-578T
NCI-H23 = system: NCI-H23
COLO 205 = system: COLO 205
NCI/ADR-RES = system: NCI/ADR-RES
OVCAR-8 = system: OVCAR-8
UACC-257 = system: UACC-257
MDA-MB-231 = system: MDA-MB-231
K562 = system: K562
U-251 = system: U-251
SF-295 = system: SF-295
SF-539 = system: SF-539
DU-145 = system: DU-145
RXF 393 = system: RXF 393
NCI-H460 = system: NCI-H460
ACHN = system: ACHN

In the case of `Cn1c2c(c3ccccc3c1=O)C(=O)c1ccccc1-2`, the GI50 (TK-10) is reported as 21.4 µM (inactive), the GI50 (SK-MEL-5) is reported as 29.9 µM (inactive) and the GI50 (SR) is reported as 5.2 µM (inactive). For the same compound, the GI50 (SN12C) was 80.2 µM (inactive), the GI50 (HOP-92) was > 100 µM (inactive) and the GI50 (SK-OV-3) was 81.7 µM (inactive). The GI50 (RPMI-8226) was > 100 µM (inactive), the GI50 (Malme-3M) was > 100 µM (inactive) and the GI50 (IGROV-1) was > 100 µM (inactive). For the same compound, the GI50 (SNB-75) was 77.6 µM (inactive), the GI50 (UO-31) was 21.9 µM (inactive) and the GI50 (SNB-19) was 44.2 µM (inactive). The GI50 (HCT-15) was 9.79 µM, the GI50 (MCF7) was 72.9 µM (inactive) and the GI50 (T47D) was > 100 µM (inactive). For the same compound, the GI50 (KM12) was > 100 µM (inactive), the GI50 (HT-29) was 97.5 µM (inactive) and the GI50 (CCRF-CEM) was > 100 µM (inactive). For the same compound, the GI50 (EKVX) was 20.6 µM (inactive), the GI50 (M14) was > 100 µM (inactive) and the GI50 (786-0) was 17.9 µM (inactive). The GI50 (SK-MEL-28) was > 100 µM (inactive), the GI50 (OVCAR-3) was 76.4 µM (inactive) and the GI50 (NCI-H522) was 11.7 µM (inactive). The GI50 (MDA-N) was > 100 µM (inactive), the GI50 (UACC-62) was 59 µM (inactive) and the GI50 (PC-3) was > 100 µM (inactive). For the same compound, the GI50 (MDA-MB-435) was > 100 µM (inactive), the GI50 (A549) was > 100 µM (inactive) and the GI50 (SF-268) was 51.8 µM (inactive). For the same compound, the GI50 (MOLT-4) was 3.07 µM (inactive), the GI50 (HCT-116) was 15.5 µM (inactive) and the GI50 (HL-60) was 6.93 µM (inactive). For the same compound, the GI50 (SW-620) was > 100 µM (inactive), the GI50 (BT-549) was 50.9 µM (inactive) and the GI50 (NCI-H226) was 63.8 µM (inactive). The GI50 (OVCAR-4) was 29.9 µM (inactive), the GI50 (A498) was 74.1 µM (inactive) and the GI50 (HOP-62) was 18.9 µM (inactive). For the same compound, the GI50 (SK-MEL-2) was > 100 µM (inactive), the GI50 (LOX IMVI) was 27.2 µM (inactive) and the GI50 (OVCAR-5) was > 100 µM (inactive). The GI50 (CAKI-1) was > 100 µM (inactive), the GI50 (Hs-578T) was > 100 µM (inactive) and the GI50 (NCI-H23) was 30.8 µM (inactive). For the same compound, the GI50 (COLO 205) was 20 µM (inactive), the GI50 (NCI/ADR-RES) was 51.2 µM (inactive) and the GI50 (OVCAR-8) was 32.9 µM (inactive). For the same compound, the GI50 (UACC-257) was > 100 µM (inactive), the GI50 (MDA-MB-231) was 43.4 µM (inactive) and the GI50 (K562) was > 100 µM (inactive). The GI50 (U-251) was 35.3 µM (inactive), the GI50 (SF-295) was > 100 µM (inactive) and the GI50 (SF-539) was 19.7 µM (inactive). The GI50 (DU-145) was > 100 µM (inactive).
`O=C(/C=C/c1ccc(O)cc1)NCCc1ccc(O)cc1` [N-P-COUMAROYL TYRAMINE] was tested, and the GI50 (TK-10) was 3.72 µM (inactive), the GI50 (RXF 393) was > 12.5 µM (inactive) and the GI50 (SK-MEL-5) was > 12.5 µM (inactive). The GI50 (SR) was 4.02 µM (inactive), the GI50 (SN12C) was 5 µM (inactive) and the GI50 (HOP-92) was 5.14 µM (inactive). The GI50 (NCI-H460) was 11.2 µM (inactive), the GI50 (RPMI-8226) was 6.95 µM (inactive) and the GI50 (Malme-3M) was > 12.5 µM (inactive). For the same compound, the GI50 (IGROV-1) was 8.3 µM (inactive), the GI50 (UO-31) was 11.1 µM (inactive) and the GI50 (SNB-19) was > 12.5 µM (inactive). The GI50 (HCT-15) was greater than 12.5 µM, the GI50 (MCF7) was > 12.5 µM (inactive) and the GI50 (T47D) was > 12.5 µM (inactive). The GI50 (KM12) was > 12.5 µM (inactive), the GI50 (HT-29) was > 12.5 µM (inactive) and the GI50 (CCRF-CEM) was 2.99 µM (inactive). For the same compound, the GI50 (EKVX) was 3.05 µM (inactive), the GI50 (M14) was > 12.5 µM (inactive) and the GI50 (786-0) was > 12.5 µM (inactive). For the same compound, the GI50 (SK-MEL-28) was > 12.5 µM (inactive), the GI50 (OVCAR-3) was 8.93 µM (inactive) and the GI50 (NCI-H522) was 3.38 µM (inactive). The GI50 (MDA-N) was > 12.5 µM (inactive), the GI50 (UACC-62) was 7.41 µM (inactive) and the GI50 (PC-3) was 8.57 µM (inactive). The GI50 (MDA-MB-435) was > 12.5 µM (inactive), the GI50 (A549) was 4.06 µM (inactive) and the GI50 (SF-268) was 9.57 µM (inactive). For the same compound, the GI50 (HCT-116) was > 12.5 µM (inactive), the GI50 (HL-60) was 3.58 µM (inactive) and the GI50 (SW-620) was > 12.5 µM (inactive). The GI50 (BT-549) was 7.53 µM (inactive), the GI50 (NCI-H226) was > 12.5 µM (inactive) and the GI50 (OVCAR-4) was 8.63 µM (inactive). For the same compound, the GI50 (A498) was > 12.5 µM (inactive), the GI50 (HOP-62) was > 12.5 µM (inactive) and the GI50 (SK-MEL-2) was > 12.5 µM (inactive). The GI50 (LOX IMVI) was > 12.5 µM (inactive), the GI50 (OVCAR-5) was > 12.5 µM (inactive) and the GI50 (CAKI-1) was 10.2 µM (inactive). For the same compound, the GI50 (Hs-578T) was > 12.5 µM (inactive), the GI50 (NCI-H23) was 7.16 µM (inactive) and the GI50 (ACHN) was 3.49 µM (inactive). For the same compound, the GI50 (COLO 205) was > 12.5 µM (inactive), the GI50 (NCI/ADR-RES) was 3.62 µM (inactive) and the GI50 (OVCAR-8) was > 12.5 µM (inactive). The GI50 (UACC-257) was > 12.5 µM (inactive), the GI50 (MDA-MB-231) was > 12.5 µM (inactive) and the GI50 (K562) was 5.6 µM (inactive). For the same compound, the GI50 (U-251) was > 12.5 µM (inactive), the GI50 (SF-295) was 8.13 µM (inactive) and the GI50 (SF-539) was 3.13 µM (inactive). For the same compound, the GI50 (DU-145) was 12 µM (inactive).
